# Values of other authors, collected in patent US12213962B2, “Drug resistant immunotherapy for treatment of a cancer” (Emory University, priority 2009, dated 2025).
# Tested on: AG104 sarcoma cells
# Conditions: mice transplanted with non-modified, TMTX-sensitive cells
smiles,measurement,value
"COc1cc(NCc2ccc3nc(N)nc(N)c3c2C)cc(OC)c1OC [TMTX, trimetrexate]",effect on efficacy of anti-CD137 antibody,reduced the efficacy
